Details of data set [1]: method as in PMID 28507434. The note with it: cited from earlier work.
Data set [2] can be described thus: In vivo pharmacokinetics of valsartan in rat plasma, with or without abdominal X-ray irradiation. Set-up: species or system Sprague Dawley (SD) rats. As to conditions: for AUC(0-inf) / Cmax / AUC(0-t) / MRT last / Tmax / half-life: male, Sprague-Dawley, rat, plasma, po, 10 mg/kg; for AUC(0-t): read-out: AUC0–24h; for MRT last: read-out: MRT0–24h; for half-life / t1/2: valsartan 10 mg/kg by gavage, Mean ± SD, n = 6. As to the method: Valsartan was administered by gavage (10 mg/kg) after forming a homogeneous suspension (2 mg/mL) with 1% CMC-Na by grinding and stirring. Before and after administration (0.083, 0.25, 0.5, 1, 2, 4, 6, 8, 12, and 24 h), the rats in group A (n = 6) and group B (n = 6) were anesthetized with isoflurane. Blood samples were collected by the orbital blood sampling method, and whole blood was collected by blood collection tubes coated with heparin sodium. Plasma samples were obtained by centrifugation at 16,260× g for 10 min. Quantitative analysis of LC-MS/MS results was performed using Analyst 1.6.3 program. The pharmacokinetic parameters were calculated using the WinNonlin 8.3 program. SPSS Statistic 20.0 software was used for statistical analysis. One-way ANOVA was used for comparison among multiple groups, and p < 0.05 was considered statistically significant. GraphPad Prism 8.0.2 software was used for generating figures.

The nature of data set [3]: VAL urinary and fecal excretion assay (metabolic cages). As to conditions: rats, 10 mg/kg by gavage.
Method: Male Sprague Dawley (SD) rats (weight 200 ± 20 g) were purchased from Beijing Vital River Laboratory Animal Co., LTD. […] The rats were fed a maintenance diet and had free access to water. All rats were adaptively fed for three days before the experiment and randomly divided into a control group (A) and irradiation group (B). There were 6 rats in group A and B in each study. […] The samples collected were processed and then stored at −80 °C until analysis.
For the VAL urinary and fecal excretion assay, six rats in each group, A and B, were randomly assigned to metabolic cages and administered valsartan (10 mg/kg) via gavage. […] The resulting supernatant was collected as the analytical samples.
The excretion of valsartan was calculated by the concentration and sample volume (or weight), and the fractional excretion of valsartan and the cumulative excretion fraction of valsartan in each time period were obtained through comparison with the corresponding dose administered to the rat.
Data set [4] is described as follows: Ex vivo inverted intestinal sac absorption study. It is filed as in vitro ADME, Sprague Dawley (SD) rats. The note with it: for concentration of valsartan in the intestinal sac at the final time point: KRB buffer 37 °C containing 10 mM VAL, n = 6. As to the method: Six rats in groups A and B were anesthetized with isoflurane, followed by the opening of the abdominal cavity to separate a 10 cm segment of the jejunum. The distal end of the jejunal segment was ligated in Krebs–Ringer Solution (KRB), and the resulting intestinal sac was turned inside out from the proximal end to form an inverted intestinal sac. Subsequently, 1 mL of KRB buffer at 37 °C was added to the inverted intestinal sac, which was then equilibrated in oxygen-saturated KRB buffer (37 °C) for 5 min. The flipped intestinal sac was transferred to oxygen-saturated KRB buffer (37 °C) containing 10 mM VAL, initiating the timing process. At different time points, 50 μL of solution from the flipped intestinal sac was aspirated and supplemented with an equal volume (50 μL) of blank KRB buffer.

For data set [5] the following is noted: cited from earlier work.
Data set [6] in a line: VAL bile secretion assay in bile duct cannulated rats. It is filed as in vivo, Sprague Dawley (SD) rats. As to conditions: 10 mg/kg by gavage. An excerpt: For the VAL bile secretion assay, six rats in each group, A and B, underwent bile duct cannulation prior to administration. After anesthesia, the abdominal cavity of the rats was opened, followed by separation and ligation of the distal end of the common bile duct. A small opening was made at the front end of the ligation to insert a catheter, which was then ligated and fixed before suturing the abdominal cavity. Bile was collected through a catheter. The rats were maintained under anesthesia with intraperitoneal injection of normal saline and glucose to ensure stable vital signs. Following surgery, valsartan (10 mg/kg) was administered via gavage, and bile samples were collected at different time points post-administration. The collected bile samples were mixed with 50% methanol–water (ratio 1:9), centrifuged to obtain the supernatant for analysis.

On the set-up of data set [7]: method as in PMID 28438473, PMID 22204725, PMID 27749456. As to conditions: clinical studies; cited from earlier work.
The mark [8] stands for this setting: 10 mg/kg by gavage, Control group.
Where [9] appears, read: IR-5 Gy vs control, 10 mg/kg by gavage, p < 0.05.
The mark [10] stands for this setting: IR-5 Gy (abdominal X-ray 24 h before).

Read-outs that look alike come from different tables or passages of the source.

The bioavailability is the share of a dose that reaches the circulation, judged against a reference dose that is usually intravenous. What is called AUC(0-inf) is total exposure, with the tail of the curve extrapolated. Lower therefore signals low exposure. The Cmax is the maximum level reached in the sampled fluid or tissue. For orientation: half-life means the time in which the quantity being followed falls by half. Lower therefore signals fast loss. On to `CCCCC(=O)N(Cc1ccc(-c2ccccc2-c2nnn[nH]2)cc1)[C@H](C(=O)O)C(C)C` [valsartan, Valsartan], for which the bioavailability in data set [1] was 23%. The CL was determined as 20 ± 5.87 mL/min/kg in data set [2] (setting [8]) and 35.33 ± 18.5 mL/min/kg in data set [2] (10 mg/kg by gavage, IR-5 Gy). In addition, the Vd in data set [2] (setting [8]) turned out to be 6.254 ± 2.349 L/kg; in data set [2] (10 mg/kg by gavage, IR-5 Gy) it was 14.668 ± 9.456 L/kg. Moreover, in data set [2] (IR-5 Gy vs control, 10 mg/kg by gavage), the “prolongation of plasma half-life (t1/2) in the IR group” value was found to be 41%. In data set [2] (setting [9]), the “decrease of AUC0–24h in the IR group” value amounted to 37%. For the same compound, the “decrease of Cmax in the IR group” value in data set [2] (setting [9]) came out at 52%. The AUC(0-inf) came out at 8810 ± 2010 ng·h/mL in data set [2] (setting [8]) and 5470 ± 1790 ng·h/mL in data set [2] (10 mg/kg by gavage, IR-5 Gy). Also, the Cmax turned out to be 4430 ± 1260 ng/mL in data set [2] (setting [8]) and 2130 ± 878 ng/mL in data set [2] (10 mg/kg by gavage, IR-5 Gy). Further, the AUC(0-t) in data set [2] (setting [8]) amounted to 8460 ± 1840 ng·h/mL; in data set [2] (10 mg/kg by gavage, IR-5 Gy), 5270 ± 1830 ng·h/mL. The MRT last was found to be 3.84 ± 0.724 h in data set [2] (setting [8]) and 4.52 ± 1.63 h in data set [2] (10 mg/kg by gavage, IR-5 Gy). Besides, the Tmax was 0.25 h in data set [2] (10 mg/kg by gavage, Control group, read-out: Tmax); approximately 0.25 h in data set [2] (10 mg/kg by gavage, Figure 1, read-out: time of peak plasma concentration); 0.222 ± 0.068 h in data set [2] (10 mg/kg by gavage, IR-5 Gy, read-out: Tmax). In addition, the half-life is 3.57 h in data set [2] (Control group) and 5.03 h in data set [2] (setting [10]). The figures for the t1/2 in data set [2] (Control group) and in data set [2] (setting [10]) were 3.568 ± 0.411 h and 5.032 ± 2.656 h, respectively. Moreover, in data set [3] (Figure 2D), the “amount excreted in the urine” value is listed as “very small amount”. Further, in data set [3] (group not stated), the “cumulative excretion in feces” value was found to be 83%. Besides, the “concentration of valsartan in the intestinal sac at the final time point” value in data set [4] (IR group) is recorded as 127 ± 32.94 ng/mL; in data set [4] (control group) it was 205.6 ± 51.72 ng/mL. The “reduction of valsartan concentration in the intestinal sac, IR vs control” value in data set [4] (final time point) worked out at 38%. Moreover, the “fraction absorbed into the liver, secreted into the bile and passed into the feces along with unabsorbed valsartan” value in data set [5] is reported as more than 80%. The “cumulative fractional bile excretion” value in data set [6] (IR group, 15 h) is given as 10.83 % of the dose; in data set [6] (IR group, 18 h), 11.52 % of the dose; in data set [6] (IR group, 24 h) it was 12.67 % of the dose; in data set [6] (control group, 15 h), 22.89 % of the dose; in data set [6] (control group, 18 h) it was 26.24 % of the dose; in data set [6] (control group, 24 h), 31.26 % of the dose.
As for bevacizumab, the “incidence of hypertension associated with treatment” value in data set [7] is listed as 26% to 55.

Source of the values: PMC11860126, “X-Ray Irradiation Induces Oxidative Stress and Upregulates Intestinal Nrf2-Mrp2 Pathway, Leading to Decreased Intestinal Absorption of Valsartan” (Pharmaceutics, 2025).
